Experimental data: patent US20130072404A1, “APPARATUS AND PROCESSES FOR GENERATING VARIABLE CONCENTRATION OF SOLUTES IN MICRODROPLETS” (UNIVERSITE DE STRASBOURG, priority 2009, published 2013)

What was measured:
Format in all cases: biochemical
β-galactosidase [1] = molecular target: T1, β-galactosidase (Escherichia coli, UniProt P00722); assay: Standard microplate assay (Example 1 comparison values); parameters: purchased Sigma-Aldrich Co; conditions: read-out: KM of RBG measured in a standard microplate assay
β-galactosidase [2] = molecular target: T1, β-galactosidase; assay: Droplet microfluidic KM measurement, on-chip dilution system (Example 1e); parameters: purchased Sigma-Aldrich Co; conditions: 75 s droplet incubation, Michaelis-Menten fit, read-out: KM of RBG in the enzyme/substrate system
Description: In the examples, the model systems comprised an enzyme, a substrate, and an inhibitor for IC50 measurements and an enzyme and substrate alone for KM measurements. In all cases the enzyme was β-galactosidase (Sigma-Aldrich Co.), the substrate was resorufin β-D-galactopyranoside (RBG; Invitrogen Corporation), and the inhibitor was phenylethyl β-D-thiogalactopyranoside (PETG; Invitrogen Corporation).
An aqueous phase of 520 μM RBG (the substrate), 100 μM sodium fluorescein, and 5% (v/v) DMSO in PBS were injected into the ‘compound’ input of the microfluidic device (FIG. 4) at a flow rate of 111 μl/hr. A second aqueous phase, 5% (v/v) DMSO in PBS, was injected into the ‘diluent’ input at a flow rate of 389 μl/hr. […]
A series of microdroplets were created containing RBG (and sodium fluorescein) at different concentrations: from zero to 260 μM (50 μM sodium fluorescein) and then from 260 μM to zero. […] The amounts of fluorescent resorufin (liberated by β-galactosidase activity) and sodium fluorescein were measured for each droplet by monitoring fluorescence intensity in the 590-625 and 500-520 nm channels, respectively.
A Michaelis-Menten curve was fitted to the points using the DRC package in R (FIG. 8). […] This value compares favorably to the value measured in a standard microplate assay: 115.6 μM (95% confidence intervals: 102.7-128.6 μM).

PTP1B = molecular target: T2, PTP1B (Homo sapiens, UniProt P18031); assay: Microplate dose-response assay, PTP1B
T2 construct: purchased EMD Biosciences, Inc
T2 sequence (P18031 1-435): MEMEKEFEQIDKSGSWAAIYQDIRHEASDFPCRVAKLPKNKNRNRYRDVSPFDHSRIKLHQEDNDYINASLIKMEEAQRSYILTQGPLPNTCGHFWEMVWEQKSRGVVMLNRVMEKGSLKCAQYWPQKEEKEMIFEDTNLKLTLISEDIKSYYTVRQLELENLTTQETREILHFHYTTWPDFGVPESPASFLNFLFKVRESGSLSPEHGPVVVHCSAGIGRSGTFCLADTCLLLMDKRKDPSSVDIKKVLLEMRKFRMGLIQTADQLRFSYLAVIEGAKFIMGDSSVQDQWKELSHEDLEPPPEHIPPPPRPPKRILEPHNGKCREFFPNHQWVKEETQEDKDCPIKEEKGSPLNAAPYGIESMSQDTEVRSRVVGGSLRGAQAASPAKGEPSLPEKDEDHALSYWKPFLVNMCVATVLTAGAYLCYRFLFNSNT
Description: For PTP1B, the same approach was used with the following alterations: the inhibitor was diluted in 50 mM HEPES pH 7.2; the solution of enzyme was 10 mg/l PTP1B (EMD Biosciences, Inc., California, USA) in 50 mM HEPES pH 7.2 containing 2 mM DTT, 2 mM EDTA, and 2 g/l BSA; and the solution of substrate was 68 μM FDP in 50 mM HEPES pH 7.2.

[3] = molecular target: T3, protein tyrosine phosphatase 1B (PTP1B) (Homo sapiens, UniProt P18031); assay: High-resolution dose-response screening of PTP1B with a chemical library in droplets, FDP substrate
T3 construct: purchased EMD Biosciences, Inc
T3 sequence (P18031 1-435): T2 sequence (P18031 1-435)
Description: High-resolution dose-response screening of PTP1B inhibition was performed in a similar manner to the screening of β-galactosidase inhibition (see above), but with the following changes: 50 mM HEPES pH 7.2 was used in place of PBS; the enzyme solution was 20 mg/l PTP1B in 50 mM HEPES pH 7.2 containing 4 mM DTT, 4 mM EDTA, and 4 g/l BSA; and the substrate solution was 68 μM FDP in 50 mM HEPES pH 7.2. In place of the 96-well plate were two 384-well plates containing 704 compounds comprising a subset of the Prestwick Chemical Library® (FIG. 21). These plates were prepared by diluting 1 μl aliquots of the compounds in pure DMSO to 10 μl of 240 μM concentration in 50 mM HEPES pH 7.2 by serial dilution. The compounds occupied columns 1 to 22 of each plate, while the wells in column 23 contained 10 μl of 240 μM sodium suramin (in the same buffer) and the wells in column 24 contained 10 μl of buffer alone.
Injections were performed as described above. […] In this case the dispersion coefficients were assumed to be identical and the compound concentration in each droplet was calculated by assuming a linear correlation between NIR fluorescence and compound concentration.

T1 sequence (P00722 2-1024 limits assumed): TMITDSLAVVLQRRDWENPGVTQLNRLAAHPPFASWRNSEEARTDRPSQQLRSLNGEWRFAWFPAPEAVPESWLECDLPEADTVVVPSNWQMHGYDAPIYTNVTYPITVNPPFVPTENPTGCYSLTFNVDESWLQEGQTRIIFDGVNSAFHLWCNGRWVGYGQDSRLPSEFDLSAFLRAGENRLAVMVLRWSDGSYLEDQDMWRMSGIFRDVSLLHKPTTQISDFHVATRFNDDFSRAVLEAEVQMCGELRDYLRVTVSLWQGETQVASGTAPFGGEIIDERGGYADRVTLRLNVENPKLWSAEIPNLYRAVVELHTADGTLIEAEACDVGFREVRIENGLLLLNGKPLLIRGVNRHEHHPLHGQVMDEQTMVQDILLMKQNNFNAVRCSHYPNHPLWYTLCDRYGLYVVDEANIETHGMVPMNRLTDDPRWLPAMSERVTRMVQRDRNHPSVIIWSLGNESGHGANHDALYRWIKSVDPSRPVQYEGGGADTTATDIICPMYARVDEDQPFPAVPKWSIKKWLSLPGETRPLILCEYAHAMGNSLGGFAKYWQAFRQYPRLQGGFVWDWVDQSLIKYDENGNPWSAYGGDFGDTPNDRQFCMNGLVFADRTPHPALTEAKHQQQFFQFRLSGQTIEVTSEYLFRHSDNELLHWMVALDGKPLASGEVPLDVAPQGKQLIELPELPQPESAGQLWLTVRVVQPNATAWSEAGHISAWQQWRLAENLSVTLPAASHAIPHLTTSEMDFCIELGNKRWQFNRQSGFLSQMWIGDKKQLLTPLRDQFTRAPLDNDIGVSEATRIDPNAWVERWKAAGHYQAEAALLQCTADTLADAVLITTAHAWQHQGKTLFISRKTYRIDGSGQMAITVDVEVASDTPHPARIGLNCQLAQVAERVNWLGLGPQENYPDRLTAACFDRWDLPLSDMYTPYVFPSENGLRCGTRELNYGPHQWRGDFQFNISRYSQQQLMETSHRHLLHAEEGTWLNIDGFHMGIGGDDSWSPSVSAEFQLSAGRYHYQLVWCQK

SMILES | Km (β-galactosidase [1]) | Km (β-galactosidase [2]) | confirmation of activity in microplate (PTP1B) | effect on PTP1B in high-resolution dose-response curves ([3]; droplets) | IC50 ([3]; droplets, 4-parameter Hill fit) | inhibition ([3]; 50 μM droplets)
O=c1ccc2nc3ccc(O[C@@H]4O[C@H](CO)[C@H](O)[C@H](O)[C@H]4O)cc3oc-2c1 [RBG, resorufin β-D-galactopyranoside] | 116 µM | 446 µM |  |  |  | 
O=C(O)c1cc(-c2ccc(F)cc2F)ccc1O [diflunisal] |  |  | confirmed in microplate | weak activator |  | 
Cn1cc[nH]c1=S [methimazole] |  |  | not confirmed in microplate | weak inhibitor |  | 
NC(=O)c1cc[n+](CC2=C(C(=O)[O-])N3C(=O)[C@@H](NC(=O)[C@@H](c4ccccc4)S(=O)(=O)[O-])[C@H]3SC2)cc1.[Na+] [sodium cefsulodine] |  |  | confirmed in microplate | strong inhibition of PTP1B | 33 µM | 
Cc1ccc(C(=O)Nc2ccc(S(=O)(=O)[O-])c3cc(S(=O)(=O)[O-])cc(S(=O)(=O)[O-])c23)cc1NC(=O)c1cccc(NC(=O)Nc2cccc(C(=O)Nc3cc(C(=O)Nc4ccc(S(=O)(=O)[O-])c5cc(S(=O)(=O)[O-])cc(S(=O)(=O)[O-])c45)ccc3C)c2)c1.[Na+].[Na+].[Na+].[Na+].[Na+].[Na+] [sodium suramin] |  |  | confirmed in microplate | activate PTP1B at low concentrations (<10 μM) and inhibit it at higher concentrations |  | 89.9%
